Assay results: US8334315B2, “Substituted aromatic carboxamide and urea derivatives as vanilloid receptor ligands” (Gruenenthal GmbH, priority 2009, dated 2012)

Experiments:
[1] = biological target: T1, rat-species vanilloid receptor 1 (VR1/TRPV1) (Rattus norvegicus, UniProt O35433); test: Functional testing on the vanilloid receptor 1, FLIPR Ca2+ influx in rat DRG cells, capsaicin; format: cell-based; design: key to Ki (rat) [nM] Cap: agonist / partial agonist / no effect: AG=agonist; pAG=partial agonist; NE=no effect; details: for Ki: capsaicin (Cap), includes values given in brackets after pAG
T1 construct: endogenous in cells; host or cells: primary cells dissociated from rat dorsal root ganglia (DRG), cultured 2-3 days with NGF
T1 sequence (O35433 whole entry): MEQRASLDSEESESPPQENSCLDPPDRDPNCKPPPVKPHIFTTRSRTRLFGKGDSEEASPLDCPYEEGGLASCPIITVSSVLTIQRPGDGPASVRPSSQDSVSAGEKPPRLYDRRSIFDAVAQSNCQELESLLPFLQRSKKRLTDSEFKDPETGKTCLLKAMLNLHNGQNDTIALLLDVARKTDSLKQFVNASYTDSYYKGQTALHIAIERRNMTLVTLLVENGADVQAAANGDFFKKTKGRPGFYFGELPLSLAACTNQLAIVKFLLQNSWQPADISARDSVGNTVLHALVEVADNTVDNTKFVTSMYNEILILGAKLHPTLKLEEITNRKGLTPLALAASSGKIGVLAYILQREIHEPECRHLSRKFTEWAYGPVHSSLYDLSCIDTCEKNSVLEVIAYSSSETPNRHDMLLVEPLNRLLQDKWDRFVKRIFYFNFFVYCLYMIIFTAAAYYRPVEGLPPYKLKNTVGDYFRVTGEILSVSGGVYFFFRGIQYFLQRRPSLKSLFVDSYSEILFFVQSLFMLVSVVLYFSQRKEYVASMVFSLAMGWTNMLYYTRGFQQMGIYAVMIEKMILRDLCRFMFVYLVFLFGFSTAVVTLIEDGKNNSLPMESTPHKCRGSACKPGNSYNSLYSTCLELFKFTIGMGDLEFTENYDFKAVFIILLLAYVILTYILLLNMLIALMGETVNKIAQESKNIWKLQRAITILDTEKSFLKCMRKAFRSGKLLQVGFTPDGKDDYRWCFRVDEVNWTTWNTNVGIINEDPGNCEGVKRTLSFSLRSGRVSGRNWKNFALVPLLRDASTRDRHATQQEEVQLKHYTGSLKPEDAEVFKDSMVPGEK
Description: I. Functional Testing Carried Out on the Vanilloid Receptor 1 (VRI/TRPV1 Receptor)
(§1) The agonistic or antagonistic effect of the substances to be tested on the rat-species vanilloid receptor 1 (VR1/TRPV1) can be determined using the following assay. In this assay, the influx of Ca^2+ through the receptor channel is quantified with the aid of a Ca^2+-sensitive dye (type Fluo-4, Molecular Probes Europe BV, Leiden, the Netherlands) in a fluorescent imaging plate reader (FLIPR, Molecular Devices, Sunnyvale, USA).
Complete medium: 50 ml HAMS F12 nutrient mixture (Gibco Invitrogen GmbH, Karlsruhe, Germany) with
10% by volume of FCS (foetal calf serum, Gibco Invitrogen GmbH, Karlsruhe, Germany, heat-inactivated);
2 mM L-glutamine (Sigma, Munich, Germany);
1% by weight of AA solution (antibiotic/antimyotic solution, PAA, Pasching, Austria) and 25 ng/ml NGF medium (2.5 S, Gibco Invitrogen GmbH, Karlsruhe, Germany)
Cell culture plate: Poly-D-lysine-coated, black 96-well plates having a clear base (96-well black/clear plate, BD Biosciences, Heidelberg, Germany) are additionally coated with laminin (Gibco Invitrogen GmbH, Karlsruhe, Germany), the laminin being diluted with PBS (Ca—Mg-free PBS, Gibco Invitrogen GmbH, Karlsruhe, Germany) to a concentration of 100 μg/ml. Aliquots having a laminin concentration of 100 μg/ml are removed and stored at −20° C. The aliquots are diluted with PBS in a ratio of 1:10 to 10 μg/ml of laminin and respectively 50 μL of the solution are pipetted into a recess in the cell culture plate. The cell culture plates are incubated for at least two hours at 37° C., the excess solution is removed by suction and the recesses are each washed twice with PBS. The coated cell culture plates are stored with excess PBS which is not removed until just before the feeding of the cells.
Preparation of the Cells:
The vertebral column is removed from decapitated rats and placed immediately into cold HBSS buffer (Hank's buffered saline solution, Gibco Invitrogen GmbH, Karlsruhe, Germany), i.e. buffer located in an ice bath, mixed with 1% by volume (per cent by volume) of an AA solution (antibiotic/antimyotic solution, PAA, Pasching, Austria). The vertebral column is cut longitudinally and removed together with fasciae from the vertebral canal. Subsequently, the dorsal root ganglia (DRG) are removed and again stored in cold HBSS buffer mixed with 1% by volume of an AA solution. The DRG, from which all blood remnants and spinal nerves have been removed, are transferred in each case to 500 μL of cold type 2 collagenase (PAA, Pasching, Austria) and incubated for 35 minutes at 37° C. After the addition of 2.5% by volume of trypsin (PAA, Pasching, Austria), incubation is continued for 10 minutes at 37° C. After complete incubation, the enzyme solution is carefully pipetted off and 500 μL of complete medium are added to each of the remaining DRG. The DRG are respectively suspended several times, drawn through cannulae No. 1, No. 12 and No. 16 using a syringe and transferred to a 50 ml Falcon tube which is filled up to 15 ml with complete medium. The contents of each Falcon tube are respectively filtered through a 70 μm Falcon filter element and centrifuged for 10 minutes at 1,200 rpm and RT. The resulting pellet is respectively taken up in 250 μL of complete medium and the cell count is determined.
The number of cells in the suspension is set to 3×10^5 per ml and 150 μL of this suspension are in each case introduced into a recess in the cell culture plates coated as described hereinbefore. In the incubator the plates are left for two to three days at 37° C., 5% by volume of CO2 and 95% relative humidity. […]

[2] = biological target: T2, hVR1 (Homo sapiens, UniProt Q8NER1); test: Functional test on hVR1 after pH stimulus; format: cell-based, human being; details: @ 10 μM, read-out: IC50 (human being) hVR1, pH: inhibition (as a percentage)
T2 construct: expressed in transfected cells; host or cells: CHO K1 cells (ECACC), stably transfected
T2 sequence (Q8NER1 whole entry): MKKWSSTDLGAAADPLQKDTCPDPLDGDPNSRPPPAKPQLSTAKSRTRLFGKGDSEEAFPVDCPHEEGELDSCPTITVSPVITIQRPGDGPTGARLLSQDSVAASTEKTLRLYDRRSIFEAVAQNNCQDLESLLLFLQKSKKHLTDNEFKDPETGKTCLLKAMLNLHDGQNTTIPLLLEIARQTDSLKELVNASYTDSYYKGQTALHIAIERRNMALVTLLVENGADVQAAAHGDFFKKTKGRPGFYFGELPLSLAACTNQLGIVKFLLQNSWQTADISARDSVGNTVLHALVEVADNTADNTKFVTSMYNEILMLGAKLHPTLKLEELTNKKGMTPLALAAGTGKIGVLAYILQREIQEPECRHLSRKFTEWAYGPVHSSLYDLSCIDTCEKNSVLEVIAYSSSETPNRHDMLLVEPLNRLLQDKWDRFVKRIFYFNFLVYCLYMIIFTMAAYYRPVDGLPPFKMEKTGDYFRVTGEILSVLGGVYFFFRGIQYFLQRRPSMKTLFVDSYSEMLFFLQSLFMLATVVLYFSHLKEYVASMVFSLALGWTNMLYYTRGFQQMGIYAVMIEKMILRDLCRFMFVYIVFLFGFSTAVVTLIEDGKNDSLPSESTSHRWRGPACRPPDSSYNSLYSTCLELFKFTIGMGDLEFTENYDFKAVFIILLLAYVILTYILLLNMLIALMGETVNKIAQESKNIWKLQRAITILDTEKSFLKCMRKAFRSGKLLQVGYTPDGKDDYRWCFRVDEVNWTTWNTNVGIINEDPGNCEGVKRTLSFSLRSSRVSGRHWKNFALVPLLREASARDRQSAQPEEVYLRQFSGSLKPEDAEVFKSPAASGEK

[3] = biological target: T2, hVR1; test: Functional test on human VR1, NADA (N-arachidonoyl dopamine) stimulus; format: cell-based, human being; details: includes values given in brackets after pAG, read-out: Ki (human being) [nM] NADA
Description: II. Functional Tests Carried Out on the Vanilloid Receptor (VR1)
as §1, with “the” for “the rat-species”, “(VR1)” for “(VR1/TRPV1)”, “can also” for “can”, “the” for “the receptor”
Chinese hamster ovary cells (CHO K1 cells, European Collection of Cell Cultures (ECACC) United Kingdom) are stably transfected with the VR1 gene. For functional testing, these cells are plated out on poly-D-lysine-coated black 96-well plates having a clear base (BD Biosciences, Heidelberg, Germany) at a density of 25,000 cells/well. The cells are incubated overnight at 37° C. and 5% CO2 in a culture medium (Ham's F12 nutrient mixture, 10% by volume of FCS (foetal calf serum), 18 μg/ml of L-proline). The next day the cells are incubated with Fluo-4 (Fluo-4 2 μM, 0.01% by volume of Pluronic F127, Molecular Probes in HBSS (Hank's buffered saline solution), Gibco Invitrogen GmbH, Karlsruhe, Germany) for 30 minutes at 37° C. Subsequently, the plates are washed three times with HBSS buffer and after further incubation for 15 minutes at RT used for Ca^2+ measurement in a FLIPR assay. The Ca^2+-dependent fluorescence is measured before and after the addition of the substances to be tested (λex wavelength=488 nm, λem=540 nm). Quantification is carried out by measuring the highest fluorescence intensity (FC, fluorescence counts) over time.
The FLIPR protocol consists of 2 substance additions. First the compounds to be tested (10 μM) are pipetted onto the cells and the Ca^2+ influx is compared with the control (capsaicin 10 μM) (% activation based on the Ca^2+ signal after the addition of 10 μM of capsaicin). […]
Desensitising agonists and antagonists led to suppression of the Ca^2+ influx. The % inhibition is calculated compared to the maximum achievable inhibition with 10 μM of capsaicin.
Starting from the percentage displacement caused by different concentrations of the compounds to be tested of general formula I, IC50 inhibitory concentrations which cause a 50-per cent displacement of capsaicin were calculated. Ki values for the test substances were obtained by conversion by means of the Cheng-Prusoff equation (Cheng, Prusoff; Biochem. Pharmacol. 22, 3099-3108, 1973).
NADA=N-arachidonoyl dopamine

[4] = biological target: T2, hVR1; test: Functional test on human VR1, 45° C. stimulus; format: cell-based, human being
[5] = biological target: T2, hVR1; test: Functional test on VR1, FLIPR Ca2+ influx in transfected CHO K1 cells, capsaicin; format: cell-based, human being; details: capsaicin (Cap); includes values given in brackets after pAG; read-out: Ki (human being) [nM] Cap
[6] = biological target: T2, hVR1; test: as above; format: cell-based; details: capsaicin (Cap), read-out: Ki (human being) Cap column: inhibition (as a percentage)

`CC(C(=O)NCc1cc(C(C)(C)C)nn1-c1cccc(Cl)c1)c1cccc2ccc(O)cc12` (stereo not drawn) [Example 57, N-((3-tert-butyl-1-(3-chlorophenyl)-1H-pyrazol-5-yl)methyl)-2-(7-hydroxynaphthalen-1-yl)propanamide] showed a Ki [1] of 4.2 nM, an inhibition at 10 µM [2] of 13% and a Ki [3] of 0.1 nM. It also gave an IC50 ([4]; read-out: IC50 (human being) [nM], 45° C.) of 25.6 nM and a Ki [5] of 1.6 nM.

In the case of `CC(C(=O)NCc1cc(C(C)(C)C)nn1-c1ccc(F)c(Cl)c1)c1cccc2cnccc12` (stereo not drawn) [Example 69, N-((3-tert-butyl-1-(3-chloro-4-fluorophenyl)-1H-pyrazol-5-yl)methyl)-2-(isoquinolin-5-yl)propanamide], the “Ki (rat) [nM] Cap: agonist / partial agonist / no effect” value [1] is reported as “pAG”, the Ki [1] is reported as 0.9 nM and the inhibition at 10 µM [2] is reported as 13%. It also gave a Ki [3] of 0.004 nM, an inhibition at 10 µM ([4]; @ 10 μM, read-out: IC50 (human being), 45° C.: inhibition (as a percentage)) of 26% and a Ki [5] of 0.2 nM.

`COc1ccc(Cn2nc(C(F)(F)F)cc2CNC(=O)C(C)c2ccc3c(c2)OCCO3)cc1` (stereo not drawn) [Example 202, 2-(2,3-dihydrobenzo[b][1,4]dioxin-6-yl)-N-((1-(4-methoxybenzyl)-3-(trifluoromethyl)-1H-pyrazol-5-yl)methyl)propanamide] showed an inhibition at 5 µM [6] of 13%.
